# ChEMBL document CHEMBL4371076 (J Med Chem, 2019)
# Calls of active or inactive are those of the source. The rule behind the calls is not given here.
# How the values were obtained:
# [1] = target: T1, Sodium channel protein type 9 subunit alpha (Homo sapiens, UniProt Q15858); assay: Inhibition of recombinant human Nav1.7 expressed in HEK293 cells at -70 mV holding potential by patch clamp electrophysiology method; type: cell-based
# [2] = Metabolic stability in human liver microsomes assessed as parent compound remaining at 0.5 uM after 10 mins; type: ADME, Microsome; settings: read-out: Stability
# [3] = Metabolic stability in rat liver microsomes assessed as parent compound remaining at 0.5 uM after 10 mins; type: ADME, Microsome; settings: read-out: Stability
# [4] = Metabolic stability in mouse liver microsomes assessed as parent compound remaining at 0.5 uM after 10 mins; type: ADME, Microsome; settings: read-out: Stability
# [5] = Fraction unbound in mouse plasma; type: ADME, cell-free
# [6] = Permeability of the compound at pH 5.5 by PAMPA; type: ADME; settings: read-out: permeability
# [7] = Permeability of the compound at pH 7.4 by PAMPA; type: ADME; settings: read-out: permeability
# Cytochrome P450 2B6 [8] = target: T2, Cytochrome P450 2B6 (Homo sapiens, UniProt P20813); assay: Inhibition of CYP2B6 in human liver microsomes; type: ADME; settings: human, microsomes
# T2 sequence (P20813 whole entry): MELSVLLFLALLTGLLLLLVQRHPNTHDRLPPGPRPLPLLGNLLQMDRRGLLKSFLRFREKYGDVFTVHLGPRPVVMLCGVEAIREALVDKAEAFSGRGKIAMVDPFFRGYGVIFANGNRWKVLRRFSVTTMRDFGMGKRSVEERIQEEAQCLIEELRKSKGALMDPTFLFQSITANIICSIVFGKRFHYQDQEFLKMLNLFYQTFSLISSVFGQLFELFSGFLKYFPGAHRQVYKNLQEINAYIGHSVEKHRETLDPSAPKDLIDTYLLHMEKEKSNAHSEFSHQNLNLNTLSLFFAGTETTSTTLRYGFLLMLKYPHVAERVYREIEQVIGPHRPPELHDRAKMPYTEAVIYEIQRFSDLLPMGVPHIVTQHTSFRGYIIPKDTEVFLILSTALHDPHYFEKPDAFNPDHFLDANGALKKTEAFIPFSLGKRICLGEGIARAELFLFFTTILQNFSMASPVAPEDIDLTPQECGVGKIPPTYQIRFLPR
# Cytochrome P450 2C8 [9] = target: T3, Cytochrome P450 2C8 (Homo sapiens, UniProt P10632); assay: Inhibition of CYP2C8 in human liver microsomes; type: ADME; settings: human, microsomes
# T3 sequence (P10632 whole entry): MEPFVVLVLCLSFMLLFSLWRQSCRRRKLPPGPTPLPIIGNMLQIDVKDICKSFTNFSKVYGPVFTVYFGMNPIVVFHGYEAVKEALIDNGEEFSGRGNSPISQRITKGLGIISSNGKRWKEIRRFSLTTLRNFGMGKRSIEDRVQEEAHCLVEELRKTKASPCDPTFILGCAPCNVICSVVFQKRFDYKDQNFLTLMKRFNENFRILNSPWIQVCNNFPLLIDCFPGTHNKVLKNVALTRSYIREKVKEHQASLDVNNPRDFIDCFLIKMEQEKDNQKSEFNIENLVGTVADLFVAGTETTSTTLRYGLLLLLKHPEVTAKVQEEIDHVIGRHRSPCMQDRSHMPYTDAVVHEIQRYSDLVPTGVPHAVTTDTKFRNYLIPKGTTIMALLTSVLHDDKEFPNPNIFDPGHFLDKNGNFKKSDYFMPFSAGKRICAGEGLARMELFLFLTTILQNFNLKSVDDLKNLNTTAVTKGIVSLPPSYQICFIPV
# Cytochrome P450 2C9 [10] = target: T4, Cytochrome P450 2C9 (Homo sapiens, UniProt P11712); assay: Inhibition of CYP2C9 in human liver microsomes; type: ADME; settings: human, microsomes
# T4 sequence (P11712 whole entry): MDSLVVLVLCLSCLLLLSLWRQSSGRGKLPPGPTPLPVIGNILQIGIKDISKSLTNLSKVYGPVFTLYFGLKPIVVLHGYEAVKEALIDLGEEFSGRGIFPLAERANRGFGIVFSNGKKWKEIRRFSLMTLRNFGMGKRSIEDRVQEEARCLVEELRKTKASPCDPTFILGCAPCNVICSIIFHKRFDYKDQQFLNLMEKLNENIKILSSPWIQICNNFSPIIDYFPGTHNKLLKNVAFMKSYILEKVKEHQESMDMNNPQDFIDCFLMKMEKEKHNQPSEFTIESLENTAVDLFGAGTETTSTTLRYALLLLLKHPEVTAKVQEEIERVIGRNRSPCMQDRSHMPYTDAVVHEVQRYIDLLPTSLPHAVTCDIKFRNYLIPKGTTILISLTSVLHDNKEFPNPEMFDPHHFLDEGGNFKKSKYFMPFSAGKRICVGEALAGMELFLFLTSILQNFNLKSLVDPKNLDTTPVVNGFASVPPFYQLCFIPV
# Cytochrome P450 2C19 [11] = target: T5, Cytochrome P450 2C19 (Homo sapiens, UniProt P33261); assay: Inhibition of CYP2C19 in human liver microsomes; type: ADME; settings: human, microsomes
# T5 sequence (P33261 whole entry): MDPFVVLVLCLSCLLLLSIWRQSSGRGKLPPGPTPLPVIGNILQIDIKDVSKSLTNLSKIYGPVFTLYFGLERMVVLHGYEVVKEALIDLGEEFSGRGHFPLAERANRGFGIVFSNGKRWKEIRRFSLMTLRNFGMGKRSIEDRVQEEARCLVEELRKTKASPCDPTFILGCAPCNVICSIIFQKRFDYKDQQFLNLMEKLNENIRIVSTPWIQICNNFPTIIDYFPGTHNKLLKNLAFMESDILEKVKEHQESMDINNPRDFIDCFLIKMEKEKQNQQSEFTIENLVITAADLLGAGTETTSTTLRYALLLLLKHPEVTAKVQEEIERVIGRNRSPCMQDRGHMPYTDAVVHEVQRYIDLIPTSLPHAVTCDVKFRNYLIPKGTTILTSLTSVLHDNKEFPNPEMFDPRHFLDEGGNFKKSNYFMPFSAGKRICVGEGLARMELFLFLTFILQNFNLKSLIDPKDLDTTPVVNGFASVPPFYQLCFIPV
# Cytochrome P450 2D6 [12] = target: T6, Cytochrome P450 2D6 (Homo sapiens, UniProt P10635); assay: Inhibition of CYP2D6 in human liver microsomes; type: ADME; settings: human, microsomes
# T6 sequence (P10635 whole entry): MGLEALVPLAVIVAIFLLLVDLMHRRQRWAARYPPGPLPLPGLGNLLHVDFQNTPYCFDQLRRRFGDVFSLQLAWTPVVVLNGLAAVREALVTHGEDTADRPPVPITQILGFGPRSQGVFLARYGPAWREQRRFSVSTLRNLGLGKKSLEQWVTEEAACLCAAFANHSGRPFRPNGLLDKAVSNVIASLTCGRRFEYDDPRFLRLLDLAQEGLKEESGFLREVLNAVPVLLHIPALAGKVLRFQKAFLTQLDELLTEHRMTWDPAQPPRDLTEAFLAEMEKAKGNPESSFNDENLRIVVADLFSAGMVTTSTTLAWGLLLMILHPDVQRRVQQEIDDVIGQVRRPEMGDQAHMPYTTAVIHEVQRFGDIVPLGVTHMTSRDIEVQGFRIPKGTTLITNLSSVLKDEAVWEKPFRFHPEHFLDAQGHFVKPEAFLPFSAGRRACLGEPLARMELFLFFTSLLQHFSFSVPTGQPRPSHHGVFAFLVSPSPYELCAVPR
# Cytochrome P450 3A4 [13] = target: T7, Cytochrome P450 3A4 (Homo sapiens, UniProt P08684); assay: Inhibition of CYP3A4 in human liver microsomes; type: ADME; settings: human, microsomes
# T7 sequence (P08684 whole entry): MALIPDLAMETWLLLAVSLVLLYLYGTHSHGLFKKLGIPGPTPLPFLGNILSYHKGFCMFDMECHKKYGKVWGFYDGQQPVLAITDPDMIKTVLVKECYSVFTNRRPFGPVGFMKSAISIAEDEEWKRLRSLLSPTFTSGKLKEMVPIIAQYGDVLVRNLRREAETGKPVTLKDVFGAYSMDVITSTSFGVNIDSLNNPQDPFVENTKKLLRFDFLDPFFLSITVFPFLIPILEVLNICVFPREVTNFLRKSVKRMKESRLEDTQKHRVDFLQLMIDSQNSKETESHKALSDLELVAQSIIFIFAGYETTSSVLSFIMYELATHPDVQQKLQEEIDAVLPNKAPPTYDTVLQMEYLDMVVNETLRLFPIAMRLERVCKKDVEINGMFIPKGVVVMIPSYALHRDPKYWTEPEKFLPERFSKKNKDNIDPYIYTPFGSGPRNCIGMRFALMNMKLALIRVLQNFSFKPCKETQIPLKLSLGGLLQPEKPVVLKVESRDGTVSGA
# Cytochrome P450 2B6 [14] = target: T2, Cytochrome P450 2B6; assay: Time-dependant inhibition of CYP2B6 in human liver microsomes; type: ADME
# Cytochrome P450 2C8 [15] = target: T3, Cytochrome P450 2C8; assay: Time-dependant inhibition of CYP2C8 in human liver microsomes; type: ADME
# Cytochrome P450 2C9 [16] = target: T4, Cytochrome P450 2C9; assay: Time-dependant inhibition of CYP2C9 in human liver microsomes; type: ADME
# Cytochrome P450 2C19 [17] = target: T5, Cytochrome P450 2C19; assay: Time-dependant inhibition of CYP2C19 in human liver microsomes; type: ADME
# Cytochrome P450 2D6 [18] = target: T6, Cytochrome P450 2D6; assay: Time-dependant inhibition of CYP2D6 in human liver microsomes; type: ADME
# Cytochrome P450 3A4 [19] = target: T7, Cytochrome P450 3A4; assay: Time-dependant inhibition of CYP3A4 in human liver microsomes; type: ADME
# Mus musculus [20] = assay: Analgesic activity in CD1 mouse model of formalin-induced nociception assessed as reduction in formalin-evoked paw flinching/licking response during first phase at 30 mg/kg, po pretreated for 30 mins followed by formalin treatment and measured during first 5 mins post formalin injection; type: functional, organism-based
# Mus musculus [21] = assay: Analgesic activity in CD1 mouse model of formalin-induced nociception assessed as reduction in formalin-evoked paw flinching/licking response during second phase at 30 mg/kg, po pretreated for 30 mins followed by formalin treatment and measured during 15 to 45 mins post formalin injection; type: functional, organism-based
# [22] = Toxicity in CD1 mouse model of formalin-induced nociception assessed as prostration or sedation at 30 mg/kg, po; type: organism-based; settings: in vivo
# [23] = Toxicity in CD1 mouse model of formalin-induced nociception assessed as hypothermia at 30 mg/kg, po; type: organism-based; settings: in vivo
# [24] = target: T8, Sodium channel protein type 9 subunit alpha (Mus musculus, UniProt Q62205); assay: Inhibition of Nav1.7 in mouse DRG neurons at -70 mV holding potential by patch clamp electrophysiology method
# [25] = Plasma concentration in CD1 mouse model of formalin-induced nociception at 3 mg/kg, po; type: ADME, organism-based; settings: read-out: Cp, in vivo
# [26] = Unbound plasma concentration in CD1 mouse model of formalin-induced nociception at 3 mg/kg, po; type: ADME, organism-based; settings: in vivo
# [27] = Plasma concentration in CD1 mouse model of formalin-induced nociception at 30 mg/kg, po; type: ADME, organism-based; settings: read-out: Cp, in vivo
# [28] = Unbound plasma concentration in CD1 mouse model of formalin-induced nociception at 30 mg/kg, po; type: ADME, organism-based; settings: in vivo
# [29] = Drug uptake in DRG neurons of CD1 mouse model of formalin-induced nociception at 30 mg/kg, po; type: ADME, organism-based, DRG neuron; settings: in vivo, read-out: Drug uptake
# [30] = Unbound drug level in DRG neurons of CD1 mouse model of formalin-induced nociception at 30 mg/kg, po; type: ADME, organism-based, DRG neuron; settings: in vivo
# [31] = target: T1, Sodium channel protein type 9 subunit alpha; assay: Inhibition of human Nav1.7 expressed in HEK293 cells after 600 secs at -60 mV holding potential by ion works barracuda population patch clamp method; type: cell-based
# [32] = target: Sodium channel protein type 5 subunit alpha (Homo sapiens, UniProt Q14524); assay: Inhibition of human Nav1.5 expressed in HEK293 cells after 600 secs at -50 mV holding potential by ion works barracuda population patch clamp method; type: cell-based
# [33] = Fraction unbound in human plasma; type: ADME, cell-free
# [34] = Permeability from apical to basolateral side in human Caco2 cells; type: ADME, cell-based; settings: Caco-2, read-out: permeability
# [35] = Permeability from basolateral to apical side in human Caco2 cells; type: ADME, cell-based; settings: Caco-2, read-out: permeability
# [36] = Efflux ratio of permeability in human Caco2 cells; type: ADME, cell-based; settings: Caco-2
# [37] = target: T8, Sodium channel protein type 9 subunit alpha; assay: Inhibition of recombinant mouse Nav1.7 expressed in HEK293 cells at -70 mV holding potential by patch clamp electrophysiology method; type: cell-based
# T1 sequence (Q15858 whole entry): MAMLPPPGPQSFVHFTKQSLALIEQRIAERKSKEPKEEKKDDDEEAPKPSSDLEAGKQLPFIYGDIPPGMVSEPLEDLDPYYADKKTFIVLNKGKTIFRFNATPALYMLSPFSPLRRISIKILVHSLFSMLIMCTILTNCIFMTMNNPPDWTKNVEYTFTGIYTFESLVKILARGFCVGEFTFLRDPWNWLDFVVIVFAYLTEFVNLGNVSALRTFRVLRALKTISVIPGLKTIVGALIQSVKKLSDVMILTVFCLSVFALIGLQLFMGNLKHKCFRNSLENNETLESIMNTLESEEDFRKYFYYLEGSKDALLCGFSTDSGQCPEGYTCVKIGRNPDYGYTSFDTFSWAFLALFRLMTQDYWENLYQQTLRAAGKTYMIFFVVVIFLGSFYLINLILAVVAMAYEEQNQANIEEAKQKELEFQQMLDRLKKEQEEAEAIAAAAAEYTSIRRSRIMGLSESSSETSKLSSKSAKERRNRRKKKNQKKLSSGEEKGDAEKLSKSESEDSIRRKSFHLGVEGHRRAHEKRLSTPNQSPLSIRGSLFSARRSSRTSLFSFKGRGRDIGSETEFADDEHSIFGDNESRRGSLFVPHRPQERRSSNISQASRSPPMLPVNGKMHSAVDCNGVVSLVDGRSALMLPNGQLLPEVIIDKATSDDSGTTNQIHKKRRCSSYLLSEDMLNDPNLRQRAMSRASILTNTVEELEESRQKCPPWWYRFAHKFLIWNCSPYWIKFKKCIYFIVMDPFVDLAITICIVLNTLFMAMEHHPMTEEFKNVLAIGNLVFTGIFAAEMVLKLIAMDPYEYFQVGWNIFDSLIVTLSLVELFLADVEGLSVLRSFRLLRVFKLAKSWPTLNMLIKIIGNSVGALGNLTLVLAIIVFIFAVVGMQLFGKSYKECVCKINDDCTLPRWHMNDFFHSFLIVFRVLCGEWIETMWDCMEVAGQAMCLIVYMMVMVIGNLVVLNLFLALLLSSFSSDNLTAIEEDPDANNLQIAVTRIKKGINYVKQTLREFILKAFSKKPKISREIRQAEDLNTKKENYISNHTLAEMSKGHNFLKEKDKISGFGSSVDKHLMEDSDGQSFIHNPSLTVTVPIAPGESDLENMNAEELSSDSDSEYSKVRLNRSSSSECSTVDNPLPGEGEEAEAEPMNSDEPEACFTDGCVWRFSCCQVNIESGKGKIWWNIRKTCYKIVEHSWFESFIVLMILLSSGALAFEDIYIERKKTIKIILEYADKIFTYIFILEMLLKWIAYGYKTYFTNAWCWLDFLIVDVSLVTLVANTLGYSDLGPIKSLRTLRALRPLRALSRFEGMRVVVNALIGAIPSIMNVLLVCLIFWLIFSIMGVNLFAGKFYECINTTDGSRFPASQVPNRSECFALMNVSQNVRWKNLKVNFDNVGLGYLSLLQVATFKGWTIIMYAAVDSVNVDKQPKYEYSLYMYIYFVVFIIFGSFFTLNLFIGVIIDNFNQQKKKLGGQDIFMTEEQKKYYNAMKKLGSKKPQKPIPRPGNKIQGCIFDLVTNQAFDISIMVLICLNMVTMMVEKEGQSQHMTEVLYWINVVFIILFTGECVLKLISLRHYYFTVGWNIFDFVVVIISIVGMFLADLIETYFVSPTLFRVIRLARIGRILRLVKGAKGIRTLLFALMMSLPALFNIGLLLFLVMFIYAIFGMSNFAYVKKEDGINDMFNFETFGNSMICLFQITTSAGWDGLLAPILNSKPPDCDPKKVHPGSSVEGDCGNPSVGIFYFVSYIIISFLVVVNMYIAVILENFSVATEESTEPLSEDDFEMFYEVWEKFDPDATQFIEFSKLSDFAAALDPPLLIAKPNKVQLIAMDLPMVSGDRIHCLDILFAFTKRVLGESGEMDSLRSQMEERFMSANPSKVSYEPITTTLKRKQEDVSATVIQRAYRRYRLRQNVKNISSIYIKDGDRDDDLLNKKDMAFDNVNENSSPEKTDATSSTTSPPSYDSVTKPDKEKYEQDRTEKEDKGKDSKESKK
SMILES,IC50 [1],"remaining at 10 min, 0.5 µM [2]","remaining at 10 min, 0.5 µM [3]","remaining at 10 min, 0.5 µM [4]",fraction unbound [5],Papp [6],Papp [7],inhibition (INH) (Cytochrome P450 2B6 [8]),inhibition (INH) (Cytochrome P450 2C8 [9]),inhibition (INH) (Cytochrome P450 2C9 [10]),inhibition (INH) (Cytochrome P450 2C19 [11]),inhibition (INH) (Cytochrome P450 2D6 [12]),inhibition (INH) (Cytochrome P450 3A4 [13]),TDI (Cytochrome P450 2B6 [14]),TDI (Cytochrome P450 2C8 [15]),TDI (Cytochrome P450 2C9 [16]),TDI (Cytochrome P450 2C19 [17]),TDI (Cytochrome P450 2D6 [18]),TDI (Cytochrome P450 3A4 [19]),Activity (Mus musculus [20]),other results
CC(C)COc1ncc(-c2nn(C)c3cc(C(=O)NS(C)(=O)=O)ccc23)cc1Cl,11 nM,100%,100%,100%,0.002,116 ×10⁻⁶ cm/s,41.7 ×10⁻⁶ cm/s,Not Active,Not Active,Not Active,Not Active,Not Active,Not Active,Not Active,Not Active,Not Active,Not Active,Not Active,Not Active,inactive,Activity (Mus musculus [21]): inactive; Activity [22]: Toxic; Activity [23]: Toxic; IC50 [24]: 12 nM; concentration [25]: 280 nM; Cp(f) [26]: 0.56 nM
O=S(=O)(Nc1nccs1)c1cc(Cl)c(NCC23CCCN2CCC3)cc1F,,,,,,,,,,,,,,,,,,,,inactive,concentration [27]: 1400 nM; Cp(f) [28]: 340 nM; concentration [29]: 340 nM; Drug uptake(free) [30]: 340 nM
CC(C)COc1ncc(-c2cn(C)c3cc(C(=O)NS(=O)(=O)C4CC4)c(F)cc23)cc1Cl,3.3 nM,100%,37%,100%,0.002,33.5 ×10⁻⁶ cm/s,31 ×10⁻⁶ cm/s,Not Active,Not Active,Not Active,Not Active,Not Active,Not Active,Not Active,Not Active,Not Active,Not Active,Not Active,Not Active,inactive,IC50 [31]: 230 nM; IC50 [32]: 5100 nM; fraction unbound [33]: < 0.001; Papp A→B [34]: 3.4 ×10⁻⁶ cm/s; Papp B→A [35]: 10.2 ×10⁻⁶ cm/s; efflux ratio [36]: 3; IC50 [37]: 10 nM; Activity (Mus musculus [21]): inactive; Activity [22]: Non-Toxic; Activity [23]: Non-Toxic; concentration [27]: 58000 nM; Cp(f) [28]: 116 nM; concentration [29]: 11000 nM
